{"source": "paper PMC8597046", "about": "“Use of Mixture Dosing and Nonlinear Mixed Effect Modeling of Eight Environmental Contaminants in Rabbits to Improve Extrapolation Value of Toxicokinetic Data” (Environmental Health Perspectives, 2021)", "key": {"[1]": {"assay": "TK assay, oral mixture dosing: serum concentrations and noncompartmental analysis (sparse data)", "details": "for Serum concentration: oral", "method": "(§1) The experiment was carried out on thirty 10-wk old female New Zealand white rabbits (INRA 1777 line) weighing 2.37±0.14kg . […] Blood samples were taken at the designated time points post IV and oral administration: 15 min, 30 min, 1 h, 2 h, 4 h, 8 h, 12 h, 24 h, 3 d, 7 d, and 28 d from groups of 3 or 6 rabbits at each sampling time. Each rabbit was sampled 3 times and 3 rabbits were sampled at each sampling time, except at 30 min post administration, when 6 samples were collected to provide a sufficient blood volume for assaying the compounds. The doses and assay time points were selected to allow the calculation of TK parameters (Table 1) based on preliminary TK data. Residual concentrations of the compounds, and their possible evolution over time, were determined by sampling six entirely untreated rabbits during the TK study on the day of drug administrations, then 14 d and 28 d later.\n(§2) The volume administered was adjusted to the animal’s body weight (BW) recorded the day before.\n(§3) Intravenous administrations were performed via an indwelling catheter (22G Terumo, 0.9×25mm ) just after its insertion into an ear vein. […] For oral administrations, the mixture of all compounds ( 4mL/kg ) was deposited directly in the mouth of rabbits using a catheter (22G BD Insyte 22G, 0.9×25mm ). Prior to the study, the rabbits had been trained to gradually swallow water and then corn oil.\n(§4) Blood samples were collected from the auricular artery using a 20 G needle ( 0.9×25mm ) and a dry tube. The first two blood samples were 8–10mL in volume, whereas a large volume (about 20mL ) was obtained antemortem immediately after electrical stunning (95LX rabbit stunner; Burdis), followed by exsanguination.\n(§5) Serum concentration-time profiles of the different compounds were first analyzed using a noncompartmental approach (NCA) involving a sparse data option. Sparse data methodology consists of calculating TK parameters based on the mean profile of all the subjects in the dataset and is appropriate when a rich data series cannot be obtained, as in the present experiment ([FDA 1999]). The area under the concentration time curve ( AUC0−tlast ) and the area under the first moment curve ( AUMC0−tlast ) from dosing time ( t=0 ) to the time of the last measurable concentration were calculated using the linear trapezoidal rule after IV and oral dosing. The area under the serum concentration time curve from dosing time to infinity ( AUC0−inf ) was obtained by adding to AUC0−tlast the area extrapolated from the time of the last measurable concentration to infinity by dividing the last quantifiable serum concentration by the slope of the terminal phase ( λZ ), as estimated by linear regression using the best fit option of Phoenix®.\n(§6) The clearance (CL) and apparent clearance (CL_F) were respectively estimated after IV and oral administrations by dividing the administered dose by the AUC0−inf calculated for each analyte.\n(§7) The terminal half-life (HL) was estimated with Equation 1: (1) HL=0.69315/λZ where λz is the slope of the terminal phase.\nThe oral bioavailability (F) was estimated using Equation 2: (2) F=AUCvo0−tlast×Doseiv/AUCiv0−tlast×Dosevo, where AUCiv0−tlast and AUCvo0-tlast are the values of AUC0−tlast obtained after IV and oral dosing, respectively, and Doseiv and Dosevo are the IV and oral doses."}, "[2]": {"assay": "Estimation of loading and daily maintenance doses and NLME model simulations", "design": "species or system female rabbits", "details": "oral", "method": "The ultimate goal of this TK investigation was to compute a dosage regimen that allowed targeted steady-state serum concentrations to be attained rapidly for a planned TK/TD trial on the reprotoxic effect of a mixture of environmental contaminants in female rabbits. […] With that in mind, the loading and the daily maintenance doses of each compound were evaluated using Equations 12 and 13, respectively.\nThis risk was also the reason why the NLME model was employed to simulate the time development of the amounts of compounds in the central and peripheral compartments following administration of the daily maintenance dose of each compound over the same duration.\nThe loading and maintenance doses computed to ensure a nominal CSS of 1 ng/mL were scaled to determine the doses to be administrated by oral route to female rabbits to maintain the targeted CSS ."}, "[3]": {"assay": "TK assay, intravenous mixture dosing: serum concentrations and noncompartmental analysis (sparse data)", "details": "for Serum concentration: IV", "method": "as §1, §2, §3, §4, §5, §6, §7\nThe mean residence time (MRT) was estimated using Equation 3: (3) MRT=AUMCiv0−tlast /AUCiv0−tlast , where AUCMiv0−tlast and AUCiv0−tlast are the values of AUMC0−tlast and AUC0−tlast obtained after IV dosing.\nThe steady-state volume of distribution ( VSS ) was estimated using Equation 4: (4) VSS=CL×MRT, with CL and MRT as defined above."}, "[4]": {"details": "oral mixture dosing, NCA, n=12, MEHP after oral DEHP"}}}
{"smiles": "O=S(=O)(c1ccc(O)cc1)c1ccc(O)cc1", "note": "[BPS, bisphenol S]", "values": [{"measurement": "MRT", "setting": "[1]; [4]", "result": 6.54, "unit": "h"}, {"measurement": "Tmax", "setting": "[1]; [4]", "result": 0.23, "unit": "h"}, {"measurement": "Serum concentration", "setting": "[1]; rabbit 13, 4.30 h, MEHP after oral DEHP", "result": 140, "unit": "nM"}, {"measurement": "Serum concentration", "setting": "[1]; rabbit 14, 0.37 h, MEHP after oral DEHP", "result": 1550, "unit": "nM"}, {"measurement": "Serum concentration", "setting": "[1]; rabbit 14, 4.17 h, MEHP after oral DEHP", "result": 130, "unit": "nM"}, {"measurement": "Serum concentration", "setting": "[1]; rabbit 15, 4.05 h, MEHP after oral DEHP", "result": 110, "unit": "nM"}, {"measurement": "Serum concentration", "setting": "[1]; rabbit 15, 23.98 h, MEHP after oral DEHP", "result": 12, "unit": "nM"}, {"measurement": "Serum concentration", "setting": "[1]; rabbit 16, 0.55 h, MEHP after oral DEHP", "result": 320, "unit": "nM"}, {"measurement": "Serum concentration", "setting": "[1]; rabbit 16, 8.22 h, MEHP after oral DEHP", "result": 50, "unit": "nM"}, {"measurement": "Serum concentration", "setting": "[1]; rabbit 16, 72.00 h, MEHP after oral DEHP", "result": "< 4", "unit": "nM"}, {"measurement": "Serum concentration", "setting": "[1]; rabbit 17, 0.53 h, MEHP after oral DEHP", "result": 58, "unit": "nM"}, {"measurement": "Serum concentration", "setting": "[1]; rabbit 17, 8.48 h, MEHP after oral DEHP", "result": 121, "unit": "nM"}, {"measurement": "Serum concentration", "setting": "[1]; rabbit 17, 72.00 h, MEHP after oral DEHP", "result": "< 4", "unit": "nM"}, {"measurement": "Serum concentration", "setting": "[1]; rabbit 18, 0.55 h, MEHP after oral DEHP", "result": 940, "unit": "nM"}, {"measurement": "Serum concentration", "setting": "[1]; rabbit 18, 8.00 h, MEHP after oral DEHP", "result": 49, "unit": "nM"}, {"measurement": "Serum concentration", "setting": "[1]; rabbit 18, 71.96 h, MEHP after oral DEHP", "result": "< 4", "unit": "nM"}, {"measurement": "Serum concentration", "setting": "[1]; rabbit 19, 1.02 h, MEHP after oral DEHP", "result": 190, "unit": "nM"}, {"measurement": "Serum concentration", "setting": "[1]; rabbit 19, 12.00 h, MEHP after oral DEHP", "result": 87, "unit": "nM"}, {"measurement": "Serum concentration", "setting": "[1]; rabbit 20, 1.07 h, MEHP after oral DEHP", "result": 150, "unit": "nM"}, {"measurement": "Serum concentration", "setting": "[1]; rabbit 20, 12.00 h, MEHP after oral DEHP", "result": 51, "unit": "nM"}, {"measurement": "Serum concentration", "setting": "[1]; rabbit 21, 1.08 h, MEHP after oral DEHP", "result": 97, "unit": "nM"}, {"measurement": "Serum concentration", "setting": "[1]; rabbit 21, 12.00 h, MEHP after oral DEHP", "result": 100, "unit": "nM"}, {"measurement": "Serum concentration", "setting": "[1]; rabbit 22, 2.00 h, MEHP after oral DEHP", "result": 120, "unit": "nM"}, {"measurement": "Serum concentration", "setting": "[1]; rabbit 23, 2.00 h, MEHP after oral DEHP", "result": 88, "unit": "nM"}, {"measurement": "Serum concentration", "setting": "[1]; rabbit 24, 2.22 h, MEHP after oral DEHP", "result": 110, "unit": "nM"}, {"measurement": "AUC0−inf", "setting": "[1]; serum, oral mixture dosing, NCA, n=12, MEHP after oral DEHP", "result": 3.38, "unit": "µM·h"}, {"measurement": "Cmax", "setting": "[1]; serum, oral mixture dosing, NCA, n=12, doses in Table 3 r3, MEHP measured after oral DEHP, BPSG after BPS", "result": 6930, "unit": "nM"}, {"measurement": "Computed maintenance dose", "setting": "[2]; daily, scaled to the targeted CSS of Table 6", "result": 0.122, "unit": "mg/kg"}, {"measurement": "Computed loading dose", "setting": "[2]; scaled to the targeted CSS of Table 6", "result": 0.032, "unit": "mg/kg"}, {"measurement": "Daily maintenance dose", "setting": "[2]; to maintain serum concentration of 1 ng/mL, daily CL×Css/F, DEHP dose for MEHP in serum", "result": 0.122, "unit": "mg/kg"}, {"measurement": "Loading dose", "setting": "[2]; to rapidly attain serum concentration of 1 ng/mL, Vss×Css/F, DEHP dose for MEHP in serum", "result": 0.032, "unit": "mg/kg"}, {"measurement": "CL", "setting": "[3]; IV mixture dosing, NCA, n=12", "result": 72.5, "unit": "mL/min/kg"}, {"measurement": "MRT", "setting": "[3]; IV mixture dosing, NCA, n=12", "result": 1.26, "unit": "h"}, {"measurement": "Serum concentration", "setting": "[3]; rabbit 1, 0.30 h", "result": 2080, "unit": "nM"}, {"measurement": "Serum concentration", "setting": "[3]; rabbit 1, 4.38 h", "result": 25, "unit": "nM"}, {"measurement": "Serum concentration", "setting": "[3]; rabbit 1, 24.03 h", "result": "< 4", "unit": "nM"}, {"measurement": "Serum concentration", "setting": "[3]; rabbit 2, 0.28 h", "result": 4060, "unit": "nM"}, {"measurement": "Serum concentration", "setting": "[3]; rabbit 2, 4.05 h", "result": 29, "unit": "nM"}, {"measurement": "Serum concentration", "setting": "[3]; rabbit 3, 0.35 h", "result": 3380, "unit": "nM"}, {"measurement": "Serum concentration", "setting": "[3]; rabbit 3, 4.05 h", "result": 65, "unit": "nM"}, {"measurement": "Serum concentration", "setting": "[3]; rabbit 4, 0.62 h", "result": 1030, "unit": "nM"}, {"measurement": "Serum concentration", "setting": "[3]; rabbit 4, 8.33 h", "result": 22, "unit": "nM"}, {"measurement": "Serum concentration", "setting": "[3]; rabbit 4, 72.00 h", "result": "< 4", "unit": "nM"}, {"measurement": "Serum concentration", "setting": "[3]; rabbit 5, 0.75 h", "result": 1230, "unit": "nM"}, {"measurement": "Serum concentration", "setting": "[3]; rabbit 5, 8.62 h", "result": 15, "unit": "nM"}, {"measurement": "Serum concentration", "setting": "[3]; rabbit 5, 72.03 h", "result": "< 4", "unit": "nM"}, {"measurement": "Serum concentration", "setting": "[3]; rabbit 6, 0.57 h", "result": 1840, "unit": "nM"}, {"measurement": "Serum concentration", "setting": "[3]; rabbit 6, 7.98 h", "result": 22, "unit": "nM"}, {"measurement": "Serum concentration", "setting": "[3]; rabbit 6, 71.97 h", "result": "< 4", "unit": "nM"}, {"measurement": "Serum concentration", "setting": "[3]; rabbit 7, 1.13 h", "result": 370, "unit": "nM"}, {"measurement": "Serum concentration", "setting": "[3]; rabbit 7, 11.98 h", "result": 8.5, "unit": "nM"}, {"measurement": "Serum concentration", "setting": "[3]; rabbit 8, 1.12 h", "result": 290, "unit": "nM"}, {"measurement": "Serum concentration", "setting": "[3]; rabbit 8, 12.02 h", "result": 6, "unit": "nM"}, {"measurement": "Serum concentration", "setting": "[3]; rabbit 9, 1.03 h", "result": 410, "unit": "nM"}, {"measurement": "Serum concentration", "setting": "[3]; rabbit 9, 11.97 h", "result": 7.4, "unit": "nM"}, {"measurement": "Serum concentration", "setting": "[3]; rabbit 11, 2.08 h", "result": 110, "unit": "nM"}, {"measurement": "Serum concentration", "setting": "[3]; rabbit 12, 2.08 h", "result": 200, "unit": "nM"}, {"measurement": "AUC0−inf", "setting": "[3]; serum, IV mixture dosing, NCA, n=12", "result": 2.41, "unit": "µM·h"}, {"measurement": "Cmax", "setting": "[3]; serum, IV mixture dosing, NCA, n=12, doses in Table 2 r3, BPSG after BPS dosing", "result": 4060, "unit": "nM"}]}
